The values that follow come from patent US9149465B2, “Isoxazolines as inhibitors of fatty acid amide hydrolase” (Infinity Pharmaceuticals, Inc., priority 2009, dated 2015).

The target in this assay is T1, human FAAH (Homo sapiens, UniProt O00519).
T1 construct: host or cells: COS-7 cells, transient transfection; 13,000 g membrane fraction solubilised in 1% Triton X-100
T1 sequence (O00519 1-579): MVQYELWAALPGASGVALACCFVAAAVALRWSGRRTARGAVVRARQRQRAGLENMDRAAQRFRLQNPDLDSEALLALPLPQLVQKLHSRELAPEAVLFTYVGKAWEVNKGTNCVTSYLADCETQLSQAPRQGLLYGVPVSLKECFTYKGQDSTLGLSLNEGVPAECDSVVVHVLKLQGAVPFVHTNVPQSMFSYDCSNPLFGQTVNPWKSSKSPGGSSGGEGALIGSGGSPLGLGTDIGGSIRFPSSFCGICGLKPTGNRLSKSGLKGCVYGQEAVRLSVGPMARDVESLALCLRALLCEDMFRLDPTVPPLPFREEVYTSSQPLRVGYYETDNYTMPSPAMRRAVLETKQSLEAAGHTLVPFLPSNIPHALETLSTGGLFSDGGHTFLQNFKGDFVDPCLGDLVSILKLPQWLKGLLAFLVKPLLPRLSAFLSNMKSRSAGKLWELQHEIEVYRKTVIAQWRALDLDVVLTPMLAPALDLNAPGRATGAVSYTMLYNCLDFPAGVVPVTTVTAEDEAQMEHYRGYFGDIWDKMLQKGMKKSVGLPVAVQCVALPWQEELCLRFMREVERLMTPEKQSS
Kind of assay: Inhibition of human FAAH (AMC arachidonoyl amide fluorescence assay). The class given is biochemical. The settings on record: inhibitor preincubated 30 minutes at room temperature; 20 μM AMC arachidonoyl amide; 4 hours; read-out: Activity (Ki, inhibitors of human FAAH). The gist of the method:
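Solubilized membrane fraction from COS-7 cells transiently expressing human FAAH (0.05 mg/mL final) preincubated 30 min at room temperature with 3-fold serially diluted inhibitor, then reacted 4 h at room temperature with 20 μM AMC arachidonoyl amide. Stopped with α-ketoheterocycle; fluorescence read. Ki from single-site competitive fit, Km fixed at 12 μM.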
For orientation: Ki means the equilibrium dissociation constant of an inhibitor or competing ligand from its target. Turning to `Fc1cc(OC2=NOC(c3ccc(OC(F)(F)F)cc3)C2)cc(-c2nnco2)c1` (racemic) [I-225], the Ki was at most 100 nM.

For `FC(F)(F)Oc1ccc(C2CC(Oc3cncc(Br)c3)=NO2)cc1` (racemic) [I-71], the Ki was at most 100 nM.

Regarding `Cc1cc(-c2ccc(OC3=NOC(c4ccc(OC(F)(F)F)cc4)C3)cn2)n(C)n1` (racemic) [I-190], the Ki was at most 100 nM.

In the case of `O=C(c1ccc([C@H]2CC(Br)=NO2)cc1)N1CCOCC1` (racemic) [I-202], the Ki lay in the range of 100 to 1000 nM.

Consider `c1ccc(Oc2ccc(C3CC(Oc4cnc5ccccc5c4)=NO3)cc2)cc1` (single isomer, unassigned) [I-42], for which the Ki was at most 100 nM.

As to `FC(F)(F)Oc1ccc(C2CC(Oc3ccc(-c4ncco4)nc3)=NO2)cc1` (racemic) [I-163], the Ki was at most 100 nM.

In the case of `FC1(F)Oc2ccc(C3CC(Br)=NO3)cc2O1` (racemic) [I-126], the Ki was at most 100 nM.

For the compound `O=C(O)c1ccc(OC2=NOC(c3ccc(OC(F)(F)F)cc3)C2)cn1` (racemic) [I-97], the Ki is at most 100 nM.

For `O[C@@H](CNC1=NOC(c2ccc(OC(F)(F)F)cc2)C1)c1ccccc1` (mixture of isomers) [I-246], the Ki is at least 1000 nM.

For `CS(=O)(=O)NC(=O)c1ccc(OC2=NOC(c3ccc(OC(F)(F)F)cc3)C2)cn1` (racemic) [I-220], the inhibition constant Ki is at most 100 nM.

For `N#Cc1cccc(OC2=NOC(c3ccc(Oc4ccccc4)cc3)C2)c1` (racemic) [I-58], the Ki lay in the range of 100 to 1000 nM.

Take `CN(C)C(=O)c1ccc(OC2=NOC(c3ccc(Oc4ccccc4)cc3)C2)cn1` (racemic) [I-111]: the Ki was at most 100 nM.

As for `CC1(c2ccc(OC(F)(F)F)cc2)CC(Oc2cccnc2)=NO1` (racemic) [I-88], the Ki fell in the range of 100 to 1000 nM.

Take `CC1(c2ccc(OC(F)(F)F)cc2)CC(Oc2ccc(-c3ccn[nH]3)nc2)=NO1` (racemic) [I-242]: the Ki was at most 100 nM.

For `O=C(O)c1cccc(-c2ccc(OC3=NOC(c4ccc(OC(F)(F)F)cc4)C3)cn2)c1` (racemic) [I-85], the inhibition constant Ki lay in the range of 100 to 1000 nM.

Consider `BrC1=NOC(COCCc2ccccc2)C1` (single isomer, unassigned) [I-52], for which the inhibition constant Ki lay in the range of 100 to 1000 nM.

Regarding `CC1(c2ccc(OC(F)(F)F)cc2)CC(n2cnc(C(=O)O)n2)=NO1` (racemic) [I-171], the Ki is at least 1000 nM.

For `CSc1ccc(OC2=NOC(c3ccc(C(F)(F)F)cc3)C2)cn1` (racemic) [I-238], the Ki is at most 100 nM.

Consider `FC(F)(F)Oc1ccc(C2CC(Oc3ccc(-c4nnco4)cc3)=NO2)cc1` (racemic) [I-201], for which the Ki is at most 100 nM.

With `BrC1=NO[C@@H](c2ccc3c(c2)OCO3)C1` (racemic) [I-16], the Ki is at most 100 nM.

As to `FC(F)(F)Oc1ccc(C2CC(Oc3ccc(-c4cn[nH]c4)nc3)=NO2)cc1` (racemic) [I-165], the Ki is at least 1000 nM.

Turning to `FC(F)(F)Oc1ccc(C2CC(Br)=NO2)cc1` (racemic) [I-14, 3-bromo-5-(4-(trifluoromethoxy)phenyl)-4,5-dihydroisoxazole], the Ki is at most 100 nM.

As to `BrC1=NO[C@@H](c2ccc(-c3ccccc3)cc2)C1` (racemic) [I-9], the inhibitory constant (Ki) is at most 100 nM.

For `CN(C)S(=O)(=O)c1ccc(OC2=NOC(C)(c3ccc(OC(F)(F)F)cc3)C2)cc1` (racemic) [I-235], the Ki was at least 1000 nM.

As for `FC(F)(F)c1cccc(OC2=NOC(c3ccc(Oc4ccccc4)cc3)C2)c1` (single isomer, unassigned) [I-26], the Ki was at least 1000 nM.

For `CS(=O)(=O)c1ccc(OC2=NOC(c3ccc(Oc4ccccc4)cc3)C2)cc1` (single isomer, unassigned) [I-30], the Ki is at most 100 nM.

As to `Fc1cc([C@H]2CC(Br)=NO2)ccc1OC(F)(F)F` (racemic) [I-120], the Ki was at most 100 nM.

As to `O=C(O)c1cccc(OC2=NOC(c3ccc(Oc4ccccc4)cc3)C2)c1` (racemic) [I-146], the Ki was 100 to 1000 nM.

As for `FC(F)(F)c1ccc(C2CC(Oc3cncnc3)=NO2)cc1` (racemic) [I-168], the inhibition constant Ki lay in the range of 100 to 1000 nM.

With `C#CCOc1ccc([C@H]2CC(Oc3cncnc3)=NO2)cc1` (racemic) [I-143], the Ki lay in the range of 100 to 1000 nM.
